# Article PMC7724566, “Prospects for Clinical Development of Stat5 Inhibitor IST5-002: High Transcriptomic Specificity in Prostate Cancer and Low Toxicity In Vivo” (Cancers, 2020)
# Key:
# [1] = tested on: Stat5; parameters: method as in PMID 31548294; details: patients treated with enzalutamide (median 6 months); cited from earlier work
# [2] = tested on: Stat5; assay: Stat5 phosphorylation in K562 cells (immunoblot); format: cell-based, human; details: 4 days
# Method: (§1) In order to evaluate whether the phosphate group of IST5 is critical for IST5 activity in cell-based assays, we compared the potency of IST5 (Figure 4A) to that of IST5-M (IST5 without the phosphate group) (Figure 4B) in inhibiting phosphorylation of Stat5 in PC and CML cells. CML (K562) cells and PC (CWR22Rv1) cells were cultured for 4 days with increasing concentrations of IST5 and IST5-M (Figure 4C,D). […] Collectively, these finding indicate that IST5 and IST5-M have similar efficacies in inhibiting phosphorylation of Stat5 in both CML and PC cells.
# (§2) Figure 4 IST5 and the IST5-derivative lacking the phosphate group (IST5-M), both, inhibit Stat5 phosphorylation in CML and prostate cancer cell line with high efficacy. (A), chemical structure of IST5-002 (IST5). (B), chemical structure of IST5-M (IST5 without the phosphate group. (C), IST5 and IST5-M both inhibit Stat5 phosphorylation in CML cells (K562) with high efficacy. K562 cells were treated with IST5 and IST5-M for 4 days at the concentrations indicated. Whole cell lysates (WCL) were immunoblotted with anti-pYStat5 mAb, anti-Stat5 mAb and anti-actin mAb as loading control. (D), IST5 and IST5-M, both, decrease Stat5 phosphorylation in PC cells (CWR22Rv1). CWR22Rv1 cells were treated with increasing concentrations of IST5 and IST5-M for 4 days. Stat5 was immunoprecipitated (IP) followed by immunoblotting (WB) with anti-pYStat5 mAb and anti-Stat5 mAb. Whole cell lysates (WCL) were immunoblotted with anti-actin mAb as loading control.
# (§3) Cell pellets were solubilized in the lysis buffer (10 mM Tris-HCl (pH 7.6), 5 mM EDTA, 50 mM sodium chloride, 30 mM sodium pyrophosphate, 50 mM sodium fluoride, 1 mM sodium orthovanadate, 1% Triton X-100, 1 mM phenylmethylsulfonyl fluoride, 5 µg/mL aprotinin, 1 µg/mL pepstatin A and 2 µg/mL leupeptin), and protein concentrations of clarified cell lysates were determined by a simplified Bradford method (Bio-Rad, Hercules, CA, USA). The whole cell lysates were immunoprecipitated with polyclonal antibodies (Table S1) followed by incubation with protein A-Sepharose beads (GE Healthcare, Chicago, IL, USA). The cell lysates and immunoprecipitated proteins were separated on 4–12% SDS-PAGE (Life Technologies, Brown Deer, WI, USA) and transferred electrophoretically to polyvinylidene fluoride membrane (Millipore). For immunoblotting, blocking buffer was tris-buffered saline and tween 20 (TBST, 0.15 M NaCl; 0.1% Tween 20; 50 mM Tris, pH 8.0) with 3% bovine serum albumin (BSA). The immunoreaction with the specific antibodies (Table S1) was detected by horseradish peroxidase-conjugated secondary antibodies followed by enhanced chemiluminescence (GE Healthcare).
# [3] = tested on: Stat5; assay: Stat5 phosphorylation in CWR22Rv1 cells (IP/immunoblot); format: cell-based, human; details: 4 days
# Method: as §1, §2, §3
# [4] = target: T1, Stat5 (Homo sapiens, UniProt P42229); assay: Native-gel-based Stat5 dimerization assay, CWR22Rv1 cells; format: cell-based; details: 1 µM, 6 h, Prl (10 nM) stimulated CWR22Rv1 cells, STAT5A-eYFP
# T1 construct: expressed in transfected cells; host or cells: CWR22Rv1
# Text: Having established that IST5 and IST5-M both interrupt phosphorylation of Stat5, we next investigated the potency of IST5-M vs. IST5 in suppressing dimerization of Stat5 in PC cells. First, we performed a native Polyacrylamide Gel Electrophoresis (PAGE) based Stat5 dimerization assay established originally by Fahrenkamp et al., where CWR22Rv1 cells were transfected with STAT5A-eYFP (Stat5 wild type), STAT5A-N642H-eYFP (constitutive activated Stat5 by N642H mutation, as a positive control) or STAT3-eYFP (Stat3 wild type, as a negative control) constructs for 3 days (Figure 5A). CWR22Rv1 cells were starved for 16 h, pretreated with vanadate (1 mM) for 2 h, followed by treatment with vehicle, IST5 or IST5-M (1 µM) for 6 h and stimulation with Prl (10 nM) for 1 h.
# Figure 5 Both IST5 and IST5-M suppress dimerization of Stat5 with similar efficacies in prostate cancer cells. (A), IST5 and IST5-M inhibit equally potently dimerization of Stat5 in native-gel-based Stat5 dimerization assay. […] Dimerization of Stat5 was analyzed by detection of the eYFP fluorescence of the native Coomassie gel. […] (E), differences in posttranslational modifications were detected between native and recombinant STAT5a using mass spectrometry. Native STAT5a from CWR22Rv1 cells and recombinant STAT5a from E. coli were gel-purified, digested using trypsin, and analyzed by bottom-up mass spectrometry. […]
# T1 sequence (P42229 whole entry, species assumed): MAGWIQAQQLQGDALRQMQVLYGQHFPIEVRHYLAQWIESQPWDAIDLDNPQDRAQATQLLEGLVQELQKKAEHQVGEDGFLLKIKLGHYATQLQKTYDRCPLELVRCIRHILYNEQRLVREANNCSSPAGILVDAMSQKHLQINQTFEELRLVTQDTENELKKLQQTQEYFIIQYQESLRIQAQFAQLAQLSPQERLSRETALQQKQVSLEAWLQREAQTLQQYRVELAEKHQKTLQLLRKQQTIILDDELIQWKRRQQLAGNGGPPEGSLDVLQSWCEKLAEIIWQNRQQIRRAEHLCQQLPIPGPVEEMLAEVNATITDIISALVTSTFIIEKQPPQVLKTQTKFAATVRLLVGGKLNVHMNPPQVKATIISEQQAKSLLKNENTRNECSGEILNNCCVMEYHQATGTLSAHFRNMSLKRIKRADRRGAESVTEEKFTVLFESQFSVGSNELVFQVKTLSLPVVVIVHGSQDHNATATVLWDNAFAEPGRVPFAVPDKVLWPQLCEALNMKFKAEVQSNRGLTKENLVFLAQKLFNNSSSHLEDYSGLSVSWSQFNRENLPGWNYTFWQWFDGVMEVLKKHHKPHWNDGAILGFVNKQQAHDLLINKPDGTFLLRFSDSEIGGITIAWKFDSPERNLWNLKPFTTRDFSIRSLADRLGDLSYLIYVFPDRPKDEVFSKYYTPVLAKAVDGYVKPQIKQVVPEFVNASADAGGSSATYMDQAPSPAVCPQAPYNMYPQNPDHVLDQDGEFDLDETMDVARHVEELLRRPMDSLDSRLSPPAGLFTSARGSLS
SMILES,PC biopsies with significantly elevated levels of Stat5 activation [1],"inhibition of Stat5 phosphorylation ([2]; 2 µM, K562 cells)","IC50 ([2]; read-out: IC50, inhibition of Stat5 phosphorylation, K562 CML cells)","inhibition of Stat5 phosphorylation ([3]; 2 µM, CWR22Rv1 cells)","IC50 ([3]; read-out: IC50, inhibition of Stat5 phosphorylation, CWR22Rv1 PC cells)",inhibition of Stat5 dimerization [4]
CNC(=O)c1ccc(N2C(=S)N(c3ccc(C#N)c(C(F)(F)F)c3)C(=O)C2(C)C)cc1F [enzalutamide],10/10,,,,,
OCC1OC(n2cnc3c(NCc4ccccc4)ncnc32)C(O)C1O (stereo not drawn) [IST5-M],,75–90%,~1100 nM,60–75%,~1300 nM,inhibited robustly
